Measured values from article PMC9775191, “A Subset Screen of the Compounds Australia Scaffold Library Identifies 7-Acylaminodibenzoxazepinones as Potent and Selective Hits for Anti-Giardia Drug Discovery” (Biomedicines, 2022).

The compounds below were run on G. duodenalis BRIS/91/HEPU/1279 (assay: Primary Giardia screen at 10 µM (live-cell imaging, automated counting)). Conditions: 24 h.
Type: cell-based, Giardia duodenalis
Outline: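 Compounds were tested once each at 10 μM final (0.2% DMSO) in culture medium under 3% O2, 5% CO2 in N2. Growth was read at 24 and 48 h by live-cell imaging with automated counting, and inhibition expressed as percent growth versus 0.2% DMSO vehicle after media-only background subtraction.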

SMILES	Average % Inhibition 24h [%]
CCC1Cn2c(C(=O)NCCN(C)C3CCCCC3)cc3cccc(c32)O1 (stereo not shown) [SN00788158]	13.9
CCc1nc(-c2cc(S(=O)(=O)N(C)c3cccc(C)c3)c(C)s2)no1 [SN00789104]	14.2

Same assay, conditions: 24 h, first singlicate assay

SMILES	% Inhibition n=1 24h [%]
CCC1Cn2c(C(=O)NCCN(C)C3CCCCC3)cc3cccc(c32)O1 (stereo not shown) [SN00788158]	11.2
CCc1nc(-c2cc(S(=O)(=O)N(C)c3cccc(C)c3)c(C)s2)no1 [SN00789104]	28.4

Same assay, conditions: 24 h, re-assessment

SMILES	% Inhibition n=2 24h [%]
CCC1Cn2c(C(=O)NCCN(C)C3CCCCC3)cc3cccc(c32)O1 (stereo not shown) [SN00788158]	16.5
CCc1nc(-c2cc(S(=O)(=O)N(C)c3cccc(C)c3)c(C)s2)no1 [SN00789104]	0.0

Same assay, conditions: 48 h

SMILES	Average % Inhibition 48h [%]
CCC1Cn2c(C(=O)NCCN(C)C3CCCCC3)cc3cccc(c32)O1 (stereo not shown) [SN00788158]	53.7
CCc1nc(-c2cc(S(=O)(=O)N(C)c3cccc(C)c3)c(C)s2)no1 [SN00789104]	30.8

Same assay, conditions: 48 h, first singlicate assay

SMILES	% Inhibition n=1 48h [%]
Cc1ccc(-n2nnc(-c3nc(-c4ccc5c(c4)OCO5)no3)c2N)cc1 [SN00787754]	0.0
CCCn1cc(S(=O)(=O)c2ccc(OC)cc2)c(=O)c2cc(F)c(N3CCC(C)CC3)cc21 [SN00787795]	0.0
CCCn1cc(S(=O)(=O)c2ccc(Cl)cc2)c(=O)c2cc(F)c(N3CCOCC3)cc21 [SN00787800]	0.0
COc1ccccc1N1CCN(C(=O)c2cc(C3CC3)n[nH]2)CC1 [SN00787811]	0.0
CCCCN(CC)CCNC(=O)C1=C(C)C(=O)OC12CCN(CC)CC2 [SN00787839]	0.0
CC(=O)N1CCC2(CC1)OC(=O)C(C)=C2C(=O)NC1CC1 [SN00787857]	0.0
CC1(C(=O)NC2CCCCCCC2)CN(S(C)(=O)=O)CC(=O)N1c1ccc(F)cc1 (stereo not shown) [SN00787900]	11.9
CC1Cc2cc(S(=O)(=O)N3CCn4c3nc3ccccc34)ccc2N1C(=O)C1CCC1 (stereo not shown) [SN00788031]	10.8
CC1CC(C)CN(C(=O)Cn2cnc3c(nc4n3CCCCC4)c2=O)C1 (stereo not shown) [SN00788055]	0.0
Cc1ccc(NC(=O)Cn2nnc(-c3nc(-c4ccccc4)no3)c2N)cc1C [SN00788081]	2.5
Cc1ccc(NC(=O)Cn2nnc(-c3nc(-c4ccncc4)no3)c2N)cc1 [SN00788097]	7.5
CCC1Cn2c(C(=O)NCCN(C)C3CCCCC3)cc3cccc(c32)O1 (stereo not shown) [SN00788158]	54.5
COc1cccc(Nc2nc(N3CCN(c4ccccc4)CC3)nc3c2cnn3C)c1 [SN00788187]	5.8
COc1ccc(-c2cc(C(=O)N(C)Cc3ccco3)[nH]n2)cc1 [SN00788220]	44.3
CCN(Cc1ccccc1)C(=O)c1cc(-c2ccccc2)n[nH]1 [SN00788230]	36.1
CN1C(=O)c2cc(C(=O)NCCCc3ccccc3)nn2CC1(C)C(=O)NC1CCCC1 (stereo not shown) [SN00788236]	0.6
O=C(NCCCN1CCN(c2ccccc2)CC1)c1noc2c1CCCCC2 [SN00788368]	9.7
Cc1oc2ncn(C(C)c3ccccc3)c(=O)c2c1C(=O)Nc1ccc(S(N)(=O)=O)nc1 (stereo not shown) [SN00788415]	0.0
Cc1ccccc1NC(=O)c1c(C)oc2ncnc(N3CCCCC3)c12 [SN00788425]	15.9
Cc1nc(N2CCOCC2)c2c(C(=O)N3CCCC3)c(C)oc2n1 [SN00788445]	0.0
CCCCN(CCCC)S(=O)(=O)c1ccc2c(c1)CCCC(=O)N2 [SN00788526]	27.2
O=C1CCCc2cc(S(=O)(=O)N3CCN(c4ccccc4)CC3)ccc2N1 [SN00788529]	19.1
Cc1noc2ncnc(N3CCCC(C(=O)NC4CCCCCC4)C3)c12 (stereo not shown) [SN00788598]	0.0
Cc1noc2ncnc(N3CCCC(C(=O)N4CCCCCC4)C3)c12 (stereo not shown) [SN00788609]	0.0
COc1cccc(C(=O)n2nc(-c3cccnc3)nc2NCc2ccc(C)cc2)c1 [SN00788624]	24.5

SMILES	% Inhibition n=1 48h [%]
CC(=O)c1ccc(NC(=O)C2CC(=O)N=C(N3CCN(Cc4ccc5c(c4)OCO5)CC3)N2)cc1 (stereo not shown) [SN00788633]	6.8
Cn1c(=O)c2c(-c3ccccc3)c(Nc3ccccc3)oc2n(C)c1=O [SN00788641]	9.4
COc1cc(-c2c(Nc3ccccc3)oc3c2c(=O)n(C)c(=O)n3C)cc(OC)c1OC [SN00788648]	0.0
COc1cc2ccccc2cc1C(=O)Nc1nc2c(s1)CN(Cc1ccccc1)CC2 [SN00788706]	9.9
Cc1cccc(N(C)c2ccc3cc(S(=O)(=O)N4CCCC4)ccc3n2)c1 [SN00788730]	7.2
Cc1ccsc1CCNC(=O)c1cnn2c(=O)c3c(n(C)c12)CCN(Cc1ccccc1)C3 [SN00788935]	17.0
Cc1ccc(-c2nc3ccccc3n2Cc2cccc(F)c2)o1 [SN00788939]	16.3
O=C(NCCC1=CCCCC1)c1cccn1-c1cccnc1 [SN00788993]	14.0
CC(=O)c1ccc(Nc2ncnc3c2c(C)c(C)n3-c2ccccc2)cc1 [SN00789011]	48.7
Cc1c(C)n(-c2ccccc2)c2ncnc(N3CCC(C)CC3)c12 [SN00789013]	35.2
Cc1ccc(S(=O)(=O)n2ccn(C(=O)c3ccccc3C)c2=O)cc1 [SN00789027]	0.0
COc1ccccc1C(=O)n1ccn(S(=O)(=O)c2ccc(C)cc2)c1=O [SN00789029]	6.3
Cc1ccc(Cl)cc1NC(=O)C1CC2CSCN2C12C(=O)Nc1ccccc12 (stereo not shown) [SN00789076]	17.2
CCc1nc(-c2cc(S(=O)(=O)N(C)c3cccc(C)c3)c(C)s2)no1 [SN00789104]	48.8
Cc1noc(-c2c(C)sc(C)c2S(=O)(=O)NCc2ccccc2)c1C [SN00789144]	30.5
COc1ccc(-n2ccn(CC(=O)Nc3ccc(OC)cc3OC)c2=O)cc1 [SN00789162]	0.0
Cc1ccccc1S(=O)(=O)N1CCC2(CC1)Nc1ccc(Cl)cc1-n1cccc12 [SN00789223]	20.1
COc1ccc2c(c1)NC1(CCN(C(=O)Cc3ccc(F)cc3)CC1)c1cccn1-2 [SN00789241]	5.9
CCc1nnc(-c2cc3ccccc3n2CC(=O)N2CCCc3ccccc32)o1 [SN00789262]	0.0
COC(=O)c1ccc(Cn2c(-c3nnc(C(C)C)o3)cc3ccccc32)cc1 [SN00789282]	4.4
CCn1nnc2cc(C(=O)N(C)CC(=O)NCc3cccc(C)c3)ccc21 [SN00789328]	14.4
O=C1COc2ccc(Cl)cc2N1Cc1nc(Cn2cnc3ccccc3c2=O)no1 [SN00789336]	0.0
CCOc1cccc(CC(=O)Nc2ccc3c(c2)C(=O)N(C)C2=NCCN23)c1OCC [SN00789358]	35.6
Cc1cc2c(cc1C)N(CC(=O)NCc1cccs1)C(=O)C1CCCC1=N2 (stereo not shown) [SN00789389]	11.1
CSc1ccc(-c2noc(-c3ccc4c(=O)n(Cc5ccccc5)c(=O)[nH]c4c3)n2)cc1 [SN00789400]	6.5

SMILES	% Inhibition n=1 48h [%]
CCCCn1c(=O)[nH]c2cc(-c3nc(-c4ccc(F)cc4)no3)ccc2c1=O [SN00789403]	0.3
COc1ccc(Cn2c(=O)c3nccnc3n(Cc3cccc(C)c3)c2=O)cc1 [SN00789526]	0.0
CCOC(=O)c1csc(-n2nc(-c3cccc(OC(C)=O)c3)cc2C(F)(F)F)n1 [SN00789527]	21.7
COc1ccc(NC(=O)C2CCn3c(nc4ccccc43)C2)cc1Cl (stereo not shown) [SN00789545]	0.0
Cc1ccc(NC(=O)Cn2c(=O)n(Cc3ccc4c(c3)OCO4)c(=O)c3ncccc32)cc1 [SN00789565]	0.0
COc1ccc(CCn2c(=O)c3ncccc3n(Cc3ccc(C)cc3)c2=O)cc1OC [SN00789585]	1.7
CC(C)c1ccc(S(=O)(=O)N2CCN(c3cc(=O)n4nc(-c5ccccc5)sc4n3)CC2)cc1 [SN00789595]	0.0
COc1ccc(S(=O)(=O)N2CCN(c3cc(=O)n4nc(-c5ccccc5C)sc4n3)CC2)cc1 [SN00789606]	10.6
CCCNS(=O)(=O)c1cc(C(=O)N2CCCC2)cs1 [SN00789651]	0.0
Cc1ccc(S(=O)(=O)NC(C)c2nc(-c3cccc(C(=O)N4CCCC4)c3)no2)cc1 (stereo not shown) [SN00789753]	5.7
Cc1nc(-c2cccc(N3CC(C(=O)NCc4ccccc4)CC3=O)c2)no1 (stereo not shown) [SN00789781]	0.0
O=C(C1CC(=O)N(c2cccc(-c3noc(C4CCC4)n3)c2)C1)N1CCN(c2ccccc2F)CC1 (stereo not shown) [SN00789791]	5.7
COCCNC(=O)C1(C)Cn2c(cc3ccsc32)C(=O)N1c1ccc(OC)c(OC)c1 (stereo not shown) [SN00789817]	0.0
Cn1nc(C(=O)NCc2ccc3c(c2)OCO3)c2c1CCN(C(=O)C1CCCC1)C2 [SN00789838]	7.0
Cc1ccc(NS(=O)(=O)c2ccc(-c3nnc(C)o3)s2)cc1 [SN00789919]	5.1
COc1ccc(NC(=O)c2cn(-c3ccc(-c4noc(C5CCCC5)n4)cc3)nc2C)cc1OC [SN00789967]	25.5
Cc1c(N2CCC(C(=O)NC3CCCCCC3)CC2)c(=O)n(CC(C)C)c(=O)n1-c1ccccc1 [SN00790002]	9.5
CCc1ccc(-c2cc(C(=O)N3CCN(c4c(C)n(-c5ccccc5)c(=O)n(C)c4=O)CC3)[nH]n2)cc1 [SN00790031]	0.0
O=C(NCCC1=CCCCC1)C1CCN(c2nc3cccnc3n(Cc3ccccc3)c2=O)CC1 [SN00790039]	11.4
Cc1noc(C)c1CCNC(=O)C1CCN(c2nc3cccnc3n(C)c2=O)CC1 [SN00790058]	15.0
CCn1c(=O)c(N2CCCC(C(=O)NCCc3c[nH]c4ccccc34)C2)nc2ccccc21 (stereo not shown) [SN00790077]	9.8
COc1cc(NC(=O)C2CCCN(c3nc4ccccc4[nH]c3=O)C2)cc(OC)c1 (stereo not shown) [SN00790089]	0.0
O=C(Cc1cccs1)Nc1ccc(N2CCN(c3ccccc3F)CC2)cc1C(=O)O [SN00790111]	0.0
Cc1ccc(-n2nc(N3CCC(C(=O)NCC4CCCO4)CC3)ccc2=O)cc1Cl (stereo not shown) [SN00790174]	0.0
O=C(Nc1ccc2nc(N3CCCN(c4ncccn4)CC3)cc(C(=O)O)c2c1)c1ccccc1F [SN00790270]	0.0

Same assay, conditions: 48 h, re-assessment

SMILES	% Inhibition n=2 48h [%]
CCC1Cn2c(C(=O)NCCN(C)C3CCCCC3)cc3cccc(c32)O1 (stereo not shown) [SN00788158]	52.9
CCc1nc(-c2cc(S(=O)(=O)N(C)c3cccc(C)c3)c(C)s2)no1 [SN00789104]	12.8
